Assay results as given in publication PMC10208956, “Microbial peptides activate tumour-infiltrating lymphocytes in glioblastoma” (Nature, 2023).

Test system: bulk TILs (patient 1635WI)
Test: Cytokine and chemokine secretion of bulk TILs stimulated with IPdBPs
Assay type: cell-based, human
Design: key to CD40 Ligand / Flt-3 Ligand / GM-CSF / Granzyme B / IFN-α / IFN-γ / IL-1rα / IL-1α / IL-1β / IL-2 / IL-3 / IL-4 / IL-5 / IL-6 / IL-7 / IL-10 / IL-12p70 / IL-13 / IL-15 / IL-17A / IL-33 / TNF-α / RANTES: pg/mL, negative-control amount subtracted; CXCL2/GROβ / CXCL10/IP-10 / CCL2/MCP-1 / CCL3/MIP-1α / CCL4/MIP-1β: unit not given beside the values
Settings: secretion by bulk TILs after peptide stimulation; sheet 1e
Excerpt: Fig. 1 Elution of HLA class II-presented bacterial peptides from 19 glioblastomas and the stimulatory effect of IPdBPs on bulk TILs. a, Schematic of the immunopeptidome analyses of glioblastoma tissue, from which eluted peptides were annotated using the UniProt bacteria database (1). TILs or peripheral memory T cells were stimulated with IPdBPs (2 and 3). LC–MS, liquid chromatography–mass spectrometry; PBMC, peripheral blood mononuclear cell. The images in panel a were created using BioRender (https://biorender.com). b, Number of unique IPdBPs in patients with glioblastoma (n = 19) (data from patient 1635WI contains both primary and recurrent tumours together), with 344 unique IPdBPs identified (left). These peptides originated from 255 and 199 unique proteins and bacteria, respectively (3 technical replicates). […] As a control, peptidome data were also annotated using human protein database to identify eluted self-peptides. As shown, most of HLA class II-bound peptides are self-(human) peptides. IPdBPs of primary (bottom left, n = 18) and recurrent (bottom right, n = 23) tumours were separately annotated to their source bacteria at the phylum level. d, Bulk TILs (patient 1635WI) were stimulated with IPdBPs (See Supplementary Table 8), each in five replicate wells, and proliferation was measured after 5 days via ^3H-thymidine incorporation. […] The data are expressed as the mean value of all wells ± s.e.m. SIN3A* peptide was used as a positive control as TILs recognize this tumour antigen. T cells with APCs without any stimuli were used as a negative control. e, Heatmap of cytokine and chemokine secretion of TILs stimulated with three IPdBPs, which weakly stimulated proliferation. The secretion of each cytokine and chemokine was calculated by subtracting the corresponding cytokine and chemokine amount (pg ml^−1) of the negative control. TILs with APCs without any stimuli were used as a negative control. Also see Extended Data Fig. 1. Source data
Supernatants from each experiment were harvested a day before adding thymidine and frozen at −20 °C. Cytokines were measured using ELISA for human IFNγ ELISA MAX (BioLegend), human GM-CSF DuoSet ELISA (R&D Systems) and bead-based assays. A Synergy H1 hybrid multi-mode reader (Agilent) was used to measure the absorbance. The LEGENDplex Multi-analyte Flow Assay kit (BioLegend) is a 13-plex human TH cytokine panel, which includes IFNγ, TNF, IL-2, IL-4, IL-5, IL-6, IL-9, IL-10, IL-13, IL-17A, IL-17F, IL-21 and IL-22. […] LSR Fortessa Flow Cytometer (BD Biosciences) was used to measure cytokines, and data were analysed using FlowJo (Tree Star). The Human XL Cytokine Luminex Performance Assay Fixed Panel (R&D Systems) contains 45 analytes covering a broad range of various chemokines and cytokines.

Ac-QPVEFNHAIHYVN-NH2 [SIN3A*] was tested, and the CCL2/MCP-1 was 2816.44, the CCL3/MIP-1α was 29.38 and the CCL4/MIP-1β was 288.41. The CCL11/Eotaxin was 0, the CCL19/MIP-3β was 3.84 and the CCL20/MIP-3α was 5.69. For the same substance, the “CD40 Ligand” value was 1225.7, the CXCL1/GROα was 401.05 and the CXCL2/GROβ was 208.21. For the same substance, the CXCL8/IL-8 was 3621.56, the CXCL10/IP-10 was 192.55 and the “Flt-3 Ligand” value was 87.97. For the same substance, the GM-CSF was 322.89, the “Granzyme B” value was 136.59 and the IFN-α was 1.52. For the same substance, the IFN-γ was 41.34, the IL-1rα was 1593.54 and the IL-1α was 6.01. The IL-1β was 5.99, the IL-2 was 5.92 and the IL-3 was 55.24. It also gave an IL-4 of 3.08, an IL-5 of 16.46 and an IL-6 of 23.1. It also gave an IL-7 of 0.95, an IL-10 of 62.69 and an IL-12p70 of 0. For the same substance, the IL-13 was 67.23, the IL-15 was 2.11 and the IL-17A was 2.07. For the same substance, the IL-17E/IL-25 was 0, the IL-33 was 6.61 and the RANTES was 135. For the same substance, the TNF-α was 366.07.
